Data: ChEMBL document CHEMBL5344475, “Indole-containing pharmaceuticals: targets, pharmacological activities, and SAR studies” (RSC Med Chem, 2024)

What was measured:
[1] = Half life in human plasma; format: ADME, cell-free
[2] = Plasma protein binding in human assessed as unbound fraction; format: ADME, cell-free
[3] = Inhibition of tyrosine kinase (unknown origin); design: species or system Homo sapiens
[4] = Volume of distribution at steady state in iv dosed human; details: in vivo, read-out: Vdss
[5] = target: T1, DNA polymerase alpha catalytic subunit (Homo sapiens, UniProt P09884); test: Inhibition of DNA polymerase alpha (unknown origin)
T1 sequence (P09884 whole entry): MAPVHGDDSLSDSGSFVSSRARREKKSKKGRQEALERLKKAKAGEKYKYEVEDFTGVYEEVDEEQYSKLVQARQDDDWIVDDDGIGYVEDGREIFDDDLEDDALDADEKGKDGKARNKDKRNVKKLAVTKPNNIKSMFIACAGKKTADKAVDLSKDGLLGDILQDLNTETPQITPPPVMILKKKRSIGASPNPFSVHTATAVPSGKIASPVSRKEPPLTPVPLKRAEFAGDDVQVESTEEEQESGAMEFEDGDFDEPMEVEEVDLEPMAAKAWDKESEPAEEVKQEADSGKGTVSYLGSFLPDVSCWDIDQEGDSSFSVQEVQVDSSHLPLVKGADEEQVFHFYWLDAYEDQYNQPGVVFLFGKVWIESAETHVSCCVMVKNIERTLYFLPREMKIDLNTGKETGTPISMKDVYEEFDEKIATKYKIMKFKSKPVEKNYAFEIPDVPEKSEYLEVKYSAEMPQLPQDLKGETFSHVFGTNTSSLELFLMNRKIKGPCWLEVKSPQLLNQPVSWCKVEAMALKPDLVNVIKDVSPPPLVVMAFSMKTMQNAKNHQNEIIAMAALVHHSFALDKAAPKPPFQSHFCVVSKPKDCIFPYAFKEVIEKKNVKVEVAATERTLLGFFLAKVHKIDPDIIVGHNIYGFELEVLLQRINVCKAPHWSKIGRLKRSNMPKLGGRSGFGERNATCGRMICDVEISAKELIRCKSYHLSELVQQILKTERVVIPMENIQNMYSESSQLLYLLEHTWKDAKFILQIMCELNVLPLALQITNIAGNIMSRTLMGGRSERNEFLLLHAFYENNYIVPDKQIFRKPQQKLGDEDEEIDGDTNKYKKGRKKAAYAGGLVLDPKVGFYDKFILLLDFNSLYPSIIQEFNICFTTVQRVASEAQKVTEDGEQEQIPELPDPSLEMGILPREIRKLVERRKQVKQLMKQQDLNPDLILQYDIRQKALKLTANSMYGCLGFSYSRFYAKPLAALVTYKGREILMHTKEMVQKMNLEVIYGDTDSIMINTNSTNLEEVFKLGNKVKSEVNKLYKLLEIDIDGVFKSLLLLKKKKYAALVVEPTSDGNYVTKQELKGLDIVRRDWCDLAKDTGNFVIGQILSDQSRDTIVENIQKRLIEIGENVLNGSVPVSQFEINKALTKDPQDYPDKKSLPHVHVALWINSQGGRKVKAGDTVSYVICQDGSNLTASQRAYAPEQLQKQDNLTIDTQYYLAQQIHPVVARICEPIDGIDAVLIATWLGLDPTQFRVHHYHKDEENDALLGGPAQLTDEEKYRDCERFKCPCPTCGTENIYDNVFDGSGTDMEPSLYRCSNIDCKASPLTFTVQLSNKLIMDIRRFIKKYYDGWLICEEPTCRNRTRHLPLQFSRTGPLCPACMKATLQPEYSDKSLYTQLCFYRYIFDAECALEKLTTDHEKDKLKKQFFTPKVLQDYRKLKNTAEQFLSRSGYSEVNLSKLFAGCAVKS

SMILES | half-life [1] [h] | Fu [2] [%] | IC50 [3] [µM] | Vd [4] [L] | IC50 [5] [µM]
C=CC(=O)Nc1cc(Nc2nccc(-c3cn(C)c4ccccc34)n2)c(OC)cc1N(C)CCN(C)C [OSIMERTINIB] | 48 | 5 | 0.0276 | 918 | 
CNCc1ccc(-c2[nH]c3cc(F)cc4c3c2CCNC4=O)cc1 [RUCAPARIB] | 17 |  |  |  | 0.0004
